Assay results published in patent publication US20110008261A1, “METHOD TO PRODUCE HYPERPOLARISED AMINO ACIDS AND AMINOSULPHONIC ACIDS” (GE HEALTHCARE LIMITED, priority 2008, published 2011).

Legend:
[1] = Solid state polarisation after DNP, by solid state 13C-NMR; type: physicochemical; settings: 3.35 T, 93.90 GHz
Protocol: The level of polarisation may for instance be determined by solid state NMR measurements of the NMR nucleus in the frozen hyperpolarised sample. For instance, if the NMR active nucleus in the hyperpolarised sample is ^13C, a solid state ^13C-NMR measurement is carried out. The solid state ^13C-NMR measurement preferably consists of a simple pulse-acquire NMR sequence using a low flip angle. The signal intensity of the hyperpolarised sample in the ^13C-NMR spectrum is compared with signal intensity of the sample in a ^13C-NMR spectrum acquired before the DNP polarisation process. The level of polarisation is then calculated from the ratio of the signal intensities of before and after polarisation.
The probe is inserted into the probe-retaining container, submerged in the liquid helium and irradiated with microwaves, preferably at a frequency of about 94 GHz at 200 mW. The level of polarisation may for instance be monitored by solid state NMR measurements of the NMR active nucleus in the frozen solution comprising the hyperpolarised sample. For instance, if the NMR active nucleus in the hyperpolarised sample is ^13C, a solid state ^13C-NMR measurement is carried out. The solid state ^13C-NMR measurement preferably consists of a simple pulse-acquire NMR sequence using a low flip angle. The signal intensity of the hyperpolarised sample in the ^13C-NMR spectrum is compared with signal intensity of the sample in a ^13C-NMR spectrum acquired before the DNP polarisation process. The level of polarisation is then calculated from the ratio of the signal intensities of before and after polarisation.
32.5 mg (0.258 mmol) of the ^13C1-alanine hydrochloride obtained in Example 1a was added to 42 mg of a stock solution in a micro test tube. The stock solution had been prepared by dissolving the DNP agent (trityl radical) tris(8-carboxy-2,2,6,6-(tetra(hydroxyethyl)-benzo-[1,2-4,5′]-bis-(1,3)-dithiole-4-yl)-methyl sodium salt which had been synthesised according to Example 7 of WO-A1-98/39277 and the paramagnetic metal ion (Gd-chelate of 1,3,5-tris-(N-(DO3A-acetamido)-N-methyl-4-amino-2-methylphenyl)-[1,3,5]triazinane-2,4,6-trione) which had been synthesised according to Example 4 of WO-A-2007/064226 in glycerol in such a way that a glycerol solution being 26 mM in trityl radical and 0.52 mM in Gd-chelate had been obtained. The resulting composition was sonicated to dissolve the ^13C1-alanine hydrochloride and produce a clear solution. […] The frozen solution was polarised under DNP conditions at 1.2 K in a 3.35 T magnetic field under irradiation with microwave (93.90 GHz). Polarisation was followed by solid state ^13C-NMR and the solid state polarisation was determined to be 40%.
^13C1-glutamine (45.5 mg, 0.30 mmol, Cambridge Isotopes) was weighted into a micro test tube and dissolved in 23.5 μl water and 25 μl aqueous NaOH (12 M). The mixture was sonicated and gently heated to produce a clear solution. To the solution was added 5.7 mg of an aqueous solution of tris(8-carboxy-2,2,6,6-(tetra(hydroxyethyl)-benzo-[1,2-4,5′]-bis-(1,3)-dithiole-4-yl)-methyl sodium salt (trityl radical; 139 μmol/g solution) and 2.1 mg of an aqueous solution of the Gd-chelate of 1,3,5-tris-(N-(DO3A-acetamido)-N-methyl-4-amino-2-methylphenyl)-[1,3,5]triazinane-2,4,6-trione) (paramagnetic metal ion; 14.5 μmol/g solution) The resulting composition was sonicated and gently heated to produce a clear solution. […] The sample cup was removed from the liquid nitrogen, 25 μl aqueous HCl (12 M) were added to the sample cup. […] The frozen solution was polarised under DNP conditions at 1.2 K in a 3.35 T magnetic field under irradiation with microwave (93.90 GHz). Polarisation was followed by solid state ^13C-NMR and the solid state polarisation was determined to be 35%.

[2] = Liquid state polarisation after liquefaction and neutralization, by liquid state 13C-NMR at 400 MHz; type: physicochemical
Protocol: In a similar way, the level of polarisation for liquid hyperpolarised samples may be determined by liquid state NMR measurements of the NMR active nucleus in the liquid hyperpolarised sample. Again the signal intensity of the liquid hyperpolarised sample is compared with the signal intensity of the liquid sample before polarisation. The level of polarisation is then calculated from the ratio of the signal intensities of before and after polarisation.
After 150 minutes of dynamic nuclear polarisation, the obtained frozen polarised solution was dissolved in a dissolution medium containing 6 ml of a phosphate buffer (20 mM, pH 6.8, 100 mg/l EDTA), aqueous NaOH (27 μl 12 M solution, 1 eq) and 30 mg NaCl.
After 120 minutes of dynamic nuclear polarisation, the obtained frozen polarised solution was dissolved in a dissolution medium containing 6 ml phosphate buffer (40 mM, pH 7, 100 mg/l EDTA, 0.9% NaCl).

[3] = acidic preparation according to Example 1, DNP at 1.2 K
[4] = acidic preparation according to Example 1, after liquefaction and neutralization
[5] = basic preparation according to Example 2, DNP at 1.2 K
[6] = basic preparation according to Example 2, after liquefaction and neutralization

Row | Structure (SMILES) | Solid state polarisation [1, 3] [%] | Liquid state polarisation [2, 4] [%] | Solid state polarisation [1, 5] [%] | Liquid state polarisation [2, 6] [%] | other results
1 | NC(=O)CCC(N)[13C](=O)[O-].[Na+] (stereo not drawn) [Sodium ^13C1-2-amino-4-carbamoyl-butanoate] |  |  |  |  | Solid state polarisation ([1]; Example 2a, 4 M aqueous, 11 mM trityl radical, 0.4 mM Gd3+, 1.2 K): 35%
2 | N[C@@H](CS)[13C](=O)O [^13C1-cysteine] | 25 | 17 |  |  | 
3 | CC(N)[13C](=O)O (stereo not drawn) [^13C1-alanine] |  |  | 18 | 16 | Liquid state polarisation ([2]; Example 1c, after 150 minutes DNP, dissolved in phosphate buffer/NaOH, final pH 6.8, 400 MHz): 35%
4 | C[C@H](N)[13C](=O)O.Cl [^13C1-alanine hydrochloride, ^13C1-alaninium chloride] |  |  |  |  | Solid state polarisation ([1]; Example 1b, 4 M in glycerol, 17 mM trityl radical, 0.9 mM Gd3+, 1.2 K): 40%

Continued, in another order:

Row | Solid state polarisation [1, 3] [%] | Liquid state polarisation [2, 4] [%] | Solid state polarisation [1, 5] [%] | Liquid state polarisation [2, 6] [%] | Structure (SMILES) | other results
5 | 16 | 16 | 19 | 18 | NC[13C](=O)O [^13C1-glycine] | 
6 |  | 6 |  |  | NC(=O)CC[C@H](N)[13C](=O)O [^13C1-glutamine] | Liquid state polarisation ([2]; Example 2b, after 120 minutes DNP, dissolved in phosphate buffer, final pH 7, 400 MHz): 30%
7 |  | 16 |  |  | O=[13C](O)C1CCCN1 (stereo not drawn) [^13C1-proline] | 
8 | 41 | 26 |  |  | CSCCC(N)[13C](=O)O (stereo not drawn) [^13C1-methionine] | 
9 |  |  | 35 | 21 | CC(C)C[C@H](N)[13C](=O)O [^13C1-leucine] | 
